Like-named read-outs stand apart in the source and are kept apart here.
Legend:
[1] = system: Complete Freund's Adjuvant (CFA) model of inflammatory pain; experiment: Anti-hyperalgesia in CFA inflammatory pain model (paw withdrawal latency to thermal stimulus); assay type: in vivo, male Sprague-Dawley rats; details: PO dose 3 mg/kg, 1 hr after dosing (24 hr after CFA), rat, read-out: % MPE (1 hr), paw withdrawal latency after CFA injection
Protocol: The anti-hyperalgesic effects of test compounds in the Complete Freund's Adjuvant (CFA) model of inflammatory pain were determined essentially as described in U.S. Pat. No. 7,517,874 using male Sprague-Dawley rats (Hsd: Sprague-Dawley®SD®, Harlan, Indianapolis, Ind.) weighing 200-300 grams.
Test compounds were prepared in a Cremaphor vehicle mixture of 1:1:18 CremophorEL:ethanol:water. Cremophor was obtained from Sigma Chemical (St. Louis, Mo.). Vehicle mixture or vehicle mixture+test compound were each administered p.o.
Assessment of thermal hyperalgesia: Baseline and post-treatment paw withdrawal latencies to a noxious thermal stimulus were measured using a plantar test apparatus (Ugo Basile; obtained from Stoelting, Wood Dale, Ill.). This apparatus generates an infrared heat source that is linearly increasing in intensity. To avoid tissue damage, the power to the heat source was cut off after 20 seconds.
Paw withdrawal latency is defined as the time required for the rat to flick its paw away from the thermal stimulus. Ibuprofen (100 mg/kg, p.o.) was used as the positive control. Paw withdrawal latencies (in seconds) were measured before (naïve paw latency, L1) and 24 hr following (CFA-inflamed paw latency, L2) a single intraplantar injection of 0.1 mL CFA (Sigma-Aldrich, cat F5881, Mycobacterium tuberculosis 1 mg/ml).
Test compounds were administered orally 23 hours following CFA injection; i.e., 1 hour prior to thermal assessment (compound treated CFA-inflamed paw latency, L3). The mean paw withdrawal latency and standard error of the mean (SEM) was determined for the injured paws for each treatment group.
Data were expressed as percent maximum percent effect (% MPE) defined as the percentage of restoration of latency of test compound-treated CFA inflamed paw as compared to the naïve paw latency.

[2] = biological target: human CB2 receptor (hCB2) (Homo sapiens, UniProt P34972); experiment: cAMP assay, agonist/inverse agonist activity at human CB2 receptor; assay type: cell-based
Chain of human CB2 receptor (hCB2) (P34972 whole entry): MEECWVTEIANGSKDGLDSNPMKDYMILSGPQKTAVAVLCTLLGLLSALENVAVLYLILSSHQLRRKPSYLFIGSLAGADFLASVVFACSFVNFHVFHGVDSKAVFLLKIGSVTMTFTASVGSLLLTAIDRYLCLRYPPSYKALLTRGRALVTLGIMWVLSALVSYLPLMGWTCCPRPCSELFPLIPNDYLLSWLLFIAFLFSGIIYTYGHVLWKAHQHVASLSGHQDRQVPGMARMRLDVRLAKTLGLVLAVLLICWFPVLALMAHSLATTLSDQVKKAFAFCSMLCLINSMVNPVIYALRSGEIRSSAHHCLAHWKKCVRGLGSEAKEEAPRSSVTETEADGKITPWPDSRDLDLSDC
Protocol: (§1) TR-FRET was measured using a 330-380 nm excitation filter, 615 nm and 665 nm emission filters, dichroic mirror 380 nm and Z=10 mm. cAMP concentrations in each well were back-calculated from a cAMP standard curve run concurrently during each assay. Each plate contained 16 wells of forskolin stimulated cells and 16 wells of forskolin plus 1 μM CP55,940-treated cells. Concentrations of cAMP were expressed as a percent of the difference of these two groups of wells.

[3] = biological target: human CB1 receptor (hCB1) (Homo sapiens, UniProt P21554); experiment: cAMP assay, agonist/inverse agonist activity at human CB1 receptor; assay type: cell-based; details: hCB1R, read-out: EC50 at hCB1R (Potency at Human CB1 determined by cAMP Assay)
Chain of human CB1 receptor (hCB1) (P21554 whole entry): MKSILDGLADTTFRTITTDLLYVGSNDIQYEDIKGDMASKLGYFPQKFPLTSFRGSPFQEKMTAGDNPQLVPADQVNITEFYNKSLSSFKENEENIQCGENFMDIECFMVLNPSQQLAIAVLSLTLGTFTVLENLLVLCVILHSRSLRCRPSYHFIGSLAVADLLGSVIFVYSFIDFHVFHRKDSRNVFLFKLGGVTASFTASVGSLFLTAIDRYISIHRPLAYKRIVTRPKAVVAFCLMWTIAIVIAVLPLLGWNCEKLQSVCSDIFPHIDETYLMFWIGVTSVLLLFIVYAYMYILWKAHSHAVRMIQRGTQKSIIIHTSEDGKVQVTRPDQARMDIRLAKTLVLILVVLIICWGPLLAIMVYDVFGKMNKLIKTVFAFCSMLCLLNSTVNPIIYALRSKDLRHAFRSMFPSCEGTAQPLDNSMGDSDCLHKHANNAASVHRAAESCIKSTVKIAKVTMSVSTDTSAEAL
Protocol: The ability of each of the compounds to act as agonists or inverse agonists at human CB2 and CB 1 receptors (hCB2, hCB 1, respectively) and at the rat CB2 receptor (rCB2) was determined by measuring changes in intracellular cyclic AMP (cAMP) levels as described in U.S. Pat. No. 7,517,874.
as §1, with “wells. Concentration-response data including EC50 (the concentration of compound producing 50% of the maximal response) and intrinsic activity (the percent maximal activation compared to full activation by CP55,940) were determined using a four-parameter non-linear regression algorithm (CambridgeSoft Bioassay).” for “wells.”

With CC(C)(C)[C@H](NC(=O)c1nn(-c2ccc(F)c(F)c2)c2c1CCOC2)C(=O)NCCO [Compound 116, (S)-1-(3,4-difluorophenyl)-N-(1-(2-hydroxyethylamino)-3,3-dimethyl-1-oxobutan-2-yl)-1,4,5,7-tetrahydropyrano[3,4-c]pyrazole-3-carboxamide] as the compound, how does the inhibition in vivo at 3 mg/kg [1] read?
The inhibition in vivo at 3 mg/kg was 60%.

What about the EC50 [2] of the same compound?
Its EC50 is < 1000 nM.

What about the EC50 [3] of the same compound?
Its EC50 is < 1000 nM.

For CC(C)(C)[C@H](NC(=O)c1nn(-c2ccc(F)c(F)c2)c2c1COCC2)C(=O)NCCO [Compound 115, (S)-1-(3,4-difluorophenyl)-N-(1-(2-hydroxyethylamino)-3,3-dimethyl-1-oxobutan-2-yl)-1,4,6,7-tetrahydropyrano[4,3-c]pyrazole-3-carboxamide], which inhibition in vivo at 3 mg/kg [1] is on record?
The inhibition in vivo at 3 mg/kg was 35%.

And the EC50 [2]?
The EC50 was < 1000 nM.

What about the EC50 [3] of the same compound?
Its EC50 is < 1000 nM.

How did the inhibition in vivo at 3 mg/kg [1] turn out when CNC(=O)[C@@H](NC(=O)c1nn(-c2ccc(F)c(F)c2)c2c1COCC2)C(C)(C)C [Compound 114, (S)-1-(3,4-difluorophenyl)-N-(3,3-dimethyl-1-(methylamino)-1-oxobutan-2-yl)-1,4,6,7-tetrahydropyrano[4,3-c]pyrazole-3-carboxamide] was run?
Its inhibition in vivo at 3 mg/kg is 41%.

And the EC50 ([2]; hCB2R, cAMP assay, read-out: EC50 at hCB2R (Potency at Human CB2 determined by cAMP Assay))?
The EC50 was < 1000 nM.

What about the EC50 [3] of the same compound?
The EC50 was < 1000 nM.

— patent US8653127B2, “Bicyclic pyrazolo-heterocycles” (Cara Therapeutics, Inc., priority 2009, dated 2014)
